Experiments:
[1] = Kinetic inertness: acid-assisted decomplexation followed by HPLC; type: physicochemical; settings: pH ~2.0, 40° C.; for Peak area of intact chelate: TFA 0.08%, UV 280 nm
Experimental: Stability (kinetic inertness) of the Gd(III) building block Gd-3 prepared in Example 4 was tested by following acid-assisted decomplexation by HPLC. Isocratic elution method was used for analysis. Constant concentration of TFA (0.08%) was maintained in the mobile phase (pH ˜2.0), while methanol content was varied to tune the retention time of the analyte. With increasing retention time (i.e. time spent in the acidic medium), more decomplexation should occur and the amount of intact chelate should decrease mono-exponentially (pseudo first-order reaction conditions), while a peak of free chelator should appear in the chromatogram. The HPLC conditions were as follows: column Kinetex C18, 100×3 mm, 2.6 um; column temperature maintained at 40° C.; mobile phase: TFA (constant 0.08% vol.), MeOH (variable), water; flow-rate 0.6 mL/min; UV detection at 280 nm; injection of 2 uL of 0.5 mM sample.

[2] = Relaxivity of Gd(III) chelates; type: physicochemical
Experimental: Relaxivity of Gd(III) chelate Gd-6 and of a peptide Gly-Phe-(Gd-6)-Gly-NH2 have been measured at 40° C. and 0.5 T in 10 mM MOPS buffer pH=7.0. It is apparent from the data that the relaxivity of the peptide, where the Gd-6 is incorporated within the peptide chain, is higher than the relaxivity of a standalone Gd-6.

Row | Relaxivity r1 at 40° C., and 0.5 T ([2]; 10 mM MOPS buffer pH=7.0, calculated r1 = R1/c) | Relaxation time T1 ([2]; 40° C., 0.5 T, 10 mM MOPS buffer pH=7.0) | Substance | Peak area of intact chelate ([1]; 36% methanol in mobile phase, retention time 6.894 min) | Peak area of intact chelate ([1]; 37% methanol in mobile phase, retention time 6.072 min) | Peak area of intact chelate ([1]; 38% methanol in mobile phase, retention time 5.570 min) | Peak area of intact chelate ([1]; 39% methanol in mobile phase, retention time 5.044 min) | Peak area of intact chelate ([1]; 40% methanol in mobile phase, retention time 4.632 min) | Stability (kinetic inertness) under acidic conditions ([1]; with increasing retention time in TFA 0.08% mobile phase)
1 | – | – | Gd(III) Complex of 2,2′,2″-(10-((2S,3S,4S)-1-(2-(9H-fluoren-9-yl)acetoxy)-2-carboxy-4-hydroxypyrrolidin-3-yl)-1,4,7,10-tetraazacyclododecane-1,4,7-triyl)triacetic acid [Gd-3] | 690.9 mAU · s | 686.6 mAU · s | 688.4 mAU · s | 685.5 mAU · s | 681.6 mAU · s | no decrease in the peak area
2 | 3.5 mM⁻¹ s⁻¹ | 1562 ms | Gd(III) Complex of 2,2′,2″-(10-((2S,3S,4S)-2-carboxy-4-hydroxypyrrolidin-3-yl)-1,4,7,10-tetraazacyclododecane-1,4,7-triyl)triacetic acid [Gd-6] | – | – | – | – | – | –

From patent publication US12268757B2, “Cyclen based compounds, coordination compounds, peptides, pharmaceutical preparation, and use thereof” (USTAV ORGANICKE CHEMIE A BIOCHEMIE AV CR V.V.I., priority 2019, dated 2025)
